A value given as a limit tells only on which side of the number the result lay.

We go through 1 compound from patent US9931407B2, “Silicon based drug conjugates and methods of using same” (BlinkBio, Inc., priority 2015, dated 2018).

The nature of series [1]: Hydrolysis studies of silicon-linker constructs and conjugates (HEPES buffer, UPLC/MS).
Series [2] deals with Folate receptor alpha expressing KB cells. As to the kind of experiment: Imaging study demonstrating endocytosis and Si-O cleavage (confocal microscopy). Format: cell-based. The following applies: 50 nM. The protocol: Example 79 as shown above contains a folate receptor targeting ligand, a spacer moiety, a siloxane core and two different fluorescent dyes (BODIPY and rhodamine) positioned on either side of the siloxane core. Folate receptor alpha expressing KB cells were grown in folic acid free media. The cells were incubated for 30 minutes on ice with 50 nM of Example 79, washed with fresh culture medium and then incubated in media at 37° C. for the desired length of time. The fate of both dyes was simultaneously monitored using confocal microscopy using Zeiss LSM 780 laser scanning microscope.

Regarding `CCN(CC)c1ccc2c(-c3ccc(S(=O)(=O)NCc4cnc(SC[Si](C)(C)O[Si](C)(C)CCCN5C(=O)CC(SC[C@H](NC(=O)[C@H](CNC(=O)CCC6=[N+]7C(=Cc8c(C)cc(C)n8[B-]7(F)F)C=C6)NC(=O)[C@H](CC(=O)O)NC(=O)CC[C@H](NC(=O)c6ccc(NCc7cnc8nc(N)[nH]c(=O)c8n7)cc6)C(=O)O)C(=O)O)C5=O)nc4)cc3S(=O)(=O)[O-])c3ccc(=[N+](CC)CC)cc-3oc2c1` (some centres unmarked) [Example 79], the half-life in series [1] (pH 5) was 1.67 h; in series [1] (pH 7.4), over 18 h. In series [2] (37° C., t=30 min), the “Cleavage of the siloxane core (color separation of the two fluorescent dyes)” value is reported as “cleavage of the siloxane core was observed”. For the same compound, the “Endocytosis of intact conjugate into the cell” value in series [2] (37° C., t=30 min) is recorded as “endocytosis of intact Example 79 into the cell was observed”. For the same compound, the “Binding to the folate receptor on the cell surface (colocalization of dyes)” value in series [2] (30 minutes on ice, t=0) is “bound to the folate receptor on the cell surface”.
